Test results published in patent US7109012B2, “Recombinant lysophosphatidic acid phosphatase” (Azwell Inc., priority 1998, dated 2006).

How the values were obtained:
Format in all cases: biochemical
bovine LPA phosphatase [1] = target: T1, bovine LPA phosphatase (Bos taurus, UniProt A6H757); experiment: Substrate specificity, free phosphate quantified by molybdate/ascorbic acid absorbance at 795 nm; conditions: 37° C., 15 minutes, pH 7.5
T1 construct: from tissue; host or cells: bovine brain, cytosol fraction
T1 sequence (A6H757 33-429): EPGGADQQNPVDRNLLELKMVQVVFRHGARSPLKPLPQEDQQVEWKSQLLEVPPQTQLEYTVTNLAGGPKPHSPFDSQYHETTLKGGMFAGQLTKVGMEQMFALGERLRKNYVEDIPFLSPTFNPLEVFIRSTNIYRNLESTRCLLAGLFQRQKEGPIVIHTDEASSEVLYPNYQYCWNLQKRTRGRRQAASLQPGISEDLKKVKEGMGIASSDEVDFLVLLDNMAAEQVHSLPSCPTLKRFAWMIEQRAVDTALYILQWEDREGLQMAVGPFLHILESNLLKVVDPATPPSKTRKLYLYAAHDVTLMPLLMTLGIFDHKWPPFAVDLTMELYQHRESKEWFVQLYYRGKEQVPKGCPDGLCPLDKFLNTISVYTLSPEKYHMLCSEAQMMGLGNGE
Procedure: The activity for the LPA Phosphatase was determined in 50 μl of a reaction mixture [50 mM Tris-maleic acid (pH 7.5), 50 μM monooleoyl-[9,10-^3H]-lysophosphatidic acid (5×10^4 dpm), Triton™-X100 at 4-fold molar concentration of the substrate and enzymes at various concentrations]. The above mixture was incubated at 37° C. for 15 minutes, and the enzyme activity was determined by measuring the generated [^3H]monooleoylglycerol.
Each of the enzyme reaction solutions containing various substrates was reacted in the same manner as in Test Example 1, and 25 μl of perchloric acid was added to terminate the reaction. Seventy-five microliters of […], 25 μl of 10% ammonium molybdate and 50 μl of 10% ascorbic acid were further added thereto. The mixed solution was boiled at 95° C. for 5 minutes, and thereafter the absorbance at 795 nm was determined to quantify free phosphate.

[2] = target: T2, Recombinant LPA Phosphatase (Homo sapiens, UniProt Q9NPH0); experiment: Determination reagent (Reagent a / Reagent b), coupled enzymatic phosphate assay, absorbance at 570 nm; conditions: 5 minutes after Reagent b; for whether assayed by the determination reagent (change in absorbance at 570 nm): 0.2 mmol/l sample, 37° C.
T2 construct: comprises a signal peptide consisting of 40 amino acid residues at N-terminal, and was a novel phosphatase having 421 amino acid residues; 6xHis; made in house; host or cells: E. coli JM109, vector pQE-30
T2 sequence (Q9NPH0 48-428 limits assumed): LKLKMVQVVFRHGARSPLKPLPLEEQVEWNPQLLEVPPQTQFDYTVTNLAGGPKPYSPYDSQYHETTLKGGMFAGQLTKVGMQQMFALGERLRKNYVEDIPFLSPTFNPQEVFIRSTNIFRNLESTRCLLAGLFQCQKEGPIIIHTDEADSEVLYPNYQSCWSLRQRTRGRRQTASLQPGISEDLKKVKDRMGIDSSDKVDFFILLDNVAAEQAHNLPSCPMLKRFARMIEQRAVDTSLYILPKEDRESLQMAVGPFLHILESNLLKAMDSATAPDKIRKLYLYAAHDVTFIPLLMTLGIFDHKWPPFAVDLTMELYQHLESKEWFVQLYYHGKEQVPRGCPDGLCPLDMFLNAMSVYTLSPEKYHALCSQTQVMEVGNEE
Procedure: The following determination reagents (Reagent a, Reagent b) were prepared.
Each of the various LPAs such as 1-palmitoyl-LPA, 1-stearoyl-LPA, 1-oleoyl-LPA, 2-oleoyl-LPA, 1-linoleoyl-LPA and 1-arachidonoyl-LPA was dissolved in physiological saline containing a surfactant, to prepare a 0.2 mmol/l sample. Two-hundred and forty microliters of Reagent a was added to 8 μl of the sample, and the mixture was reacted at 37° C. for 5 minutes. Thereafter, 80 μl of Reagent b was added thereto, and the mixture was further reacted at 37° C. for 5 minutes. The change in the absorbance at a wavelength of 570 nm for 5 minutes after adding Reagent b was determined using reagent blank as a control.
The absorbance dramatically increases after addition of reagent b, reaching a peak in several minutes. In addition, each of various phospholipids such as 1,2-dipalmitoylphosphatidic acid (1,2-dipalmitoyl-PA), 1-palmitoylphosphatidylethanolamine (1-palmitoyl-LPE), and 1-palmitoylphosphatidylcholine (1-palmitoyl-LPC) was dissolved in physiological saline containing a surfactant, to prepare a 0.2 mmol/l sample. The absorbance was determined by the same procedures.
Further, the change in the absorbance was determined by the same procedures for each of commercially available control sera, 0.2 mM 1-oleoyl-LPA, and one prepared by adding 1-oleoyl-LPA to the commercially available control serum so as to be 0.2 mM. The determination accuracy (%) of LPA was calculated from each of the obtained changes in the absorbance by the following equation: […]

bovine LPA phosphatase [3] = target: T1, bovine LPA phosphatase; experiment: Hydrolysis of [3H]1-oleoyl-LPA evaluated by TLC; conditions: 5 nmol substrate, enzyme 0-150 ng
Procedure: The experiment for the specific activity and the reaction rate, and the like is performed by using the following separation method. Concretely, the above enzyme reaction product (50 μl of a mixture) was lyophilized, and monooleoylglycerol was added as a carrier. Thereafter, the mixture was analyzed by thin-layer chromatography (TLC) using a solvent system of n-butanol/acetic acid/water (30.4/4.8/4.8). The TLC plate was exposed to iodine steam, and spots of the monooleoylglycerol were scraped off, and the radioactivity was determined.
Next, in order to confirm the reactivity with 1-oleoyl-LPA in detail, the enzyme reaction was carried out in the same manner as in Test Example 2 using [^3H]1-oleoyl-LPA (5 nmol, 1×10^5 dpm) as a substrate, and evaluated by TLC (FIG. 6).

bovine LPA phosphatase [4] = target: T1, bovine LPA phosphatase; experiment: Reactivity with [32P]LPA or [32P]PA, radioactivity of the aqueous layer; conditions: enzyme 0-175 ng, substrate 0-100 μM
Source text: FIG. 7 is a graph for evaluating the reactivity of bovine LPA phosphatase with [^32P]LPA or [^32P] PA, each being previously purified with TLC.
In order to further confirm in detail the reactivity when 1-oleoyl-LPA and dioleoyl-PA were used as substrates, [^32P]LPA and [^32P]PA were used as substrates, which had been labeled by using [γ-^32P]ATP and E. coli DG kinase [Waggoner, D. W. et al., (1996) J. Biol. Chem. 271, 16506–16509], and purified with TLC previously. Each of the reactions was carried out by varying the enzyme amount (0–175 ng), or varying the concentration of the substrate (0–100 μM). The enzyme reaction was terminated with 100 μl of 0.1 N hydrochloric acid in methanol solution, and 200 μl of chloroform and 1 M magnesium chloride were each added. The mixture was vigorously mixed, and thereafter centrifuged at 1,000×g for 5 minutes. The radioactivity of 175 μl of the aqueous layer was determined to evaluate the enzyme reaction (FIG. 7).

Row | Compound | hydrolysis by bovine LPA phosphatase (free phosphate) (bovine LPA phosphatase [1]) | further results
1 | CCCCCCCC/C=C\CCCCCCCC(=O)OC[C@@H](O)COP(=O)(O)O [1-oleoyl-LPA, 1-oleoyl-lysophosphatidic acid] | strongly hydrolyzed | Changes in Absorbance ([2]; 0.2 mmol/l, 570 nm): 0.0988
2 | CCCCCCCCCCCCCCCC(=O)OC[C@@H](O)COP(=O)([O-])OCC[N+](C)(C)C [LPC, 1-palmitoylphosphatidylcholine] | – | whether assayed by the determination reagent (change in absorbance at 570 nm) [2]: cannot substantially be done
3 | CCCCCCCCCCCCCCCC(=O)OC[C@H](COP(=O)(O)O)OC(=O)CCCCCCCCCCCCCCC [PA, 1,2-dipalmitoylphosphatidic acid] | – | whether assayed by the determination reagent (change in absorbance at 570 nm) [2]: cannot substantially be done
4 | [3H]/C(CCCCCCCC)=C(\[3H])CCCCCCCC(=O)OC[C@@H](O)COP(=O)(O)O [[^3H]1-oleoyl-LPA, monooleoyl-[9,10-^3H]-lysophosphatidic acid] | – | hydrolysis to [3H]1-oleoylglycerol (TLC) (bovine LPA phosphatase [3]): hydrolyzed
5 | O=P(O)(O)OCC(O)CO (stereo not drawn) [glycerol phosphate] | did not hydrolyze | –
6 | CCCCCCCCCCCCC/C=C/[C@@H](O)[C@@H](N)COP(=O)(O)O [sphingosine 1-phosphate] | did not hydrolyze | –
7 | Lysophosphatidic acid [LPA] | – | reactivity of bovine LPA phosphatase with 32P-labelled substrate (bovine LPA phosphatase [4]): extremely high reactivity
8 | bisphosphatidic acid | did not hydrolyze | –
9 | cardiolipin | did not hydrolyze | –
10 | ceramide 1-phosphate | did not hydrolyze | –
11 | phosphatidic acid | did not hydrolyze | –
